Experimental data as given in patent publication EP4069710B1, “PD(I) COMPLEXES, PROCESS FOR THEIR PREPARATION AND USE THEREOF AS ANTITUMOUR AGENTS” (Universita' Ca' Foscari Venezia, priority 2019, dated 2021).

Columns and labels:
Format in all cases: cell-based
MRC-5 = assay: Antiproliferative activity on control cell line, cell viability by CellTiter-Glo after 96 hours; conditions: MRC-5 (control; lung fibroblasts), mean ± standard deviation of triplicate measurements
Method: (§1) Tecan analyser, mod. Infinite® M1000.
(§2) Tests were performed for the purpose of determining the inhibitory concentration (IC50) of a compound of the invention towards tumour cell lines and on a control cell line; for comparative purposes, the same tests were performed with the cisplatin compound.
(§3) The tested cell lines were: A2780, A2780cis, OVCAR5, OVCAR3 e KURAMOCHI (ovarian cancer), A549 (lung cancer), HeLa (cervical cancer), DLD1 (colon cancer) and MRC-5 (control; lung fibroblasts). The mother solutions were obtained in dimethyl sulfoxide for the Pd(I) compound and in H2O for cisplatin.
(§4) The cells were kept, according to the protocols indicated by the suppliers, at 37 °C in an atmosphere containing 5% carbon dioxide. About 500 cells were plated on 96 different well-plates and kept under such conditions for 96 hours.
(§5) The viability of the cells was determined, after treatment of the cells with a 1:1 CellTiter-Glo® solution (registered trademark of Promega Corp., Madison, Wisconsin, USA) and DPBS, with the Tecan Infinite® M1000 instrument. The IC50 values were calculated by the response curves to the dose. The means and standard deviations were obtained from triplicate measurements.

OVCAR5 = assay: Antiproliferative activity, cell viability by CellTiter-Glo after 96 hours; conditions: OVCAR5 (ovarian cancer), mean ± standard deviation of triplicate measurements
Method: as §1, §2, §3, §4, §5

OVCAR3 = assay: as above; conditions: OVCAR3 (ovarian cancer), mean ± standard deviation of triplicate measurements
Method: as §1, §2, §3, §4, §5

A2780cis = assay: as above; conditions: A2780cis (ovarian cancer), mean ± standard deviation of triplicate measurements
Method: as §1, §2, §3, §4, §5

Kuramochi = assay: as above; conditions: Kuramochi (ovarian cancer), mean ± standard deviation of triplicate measurements
Method: as §1, §2, §3, §4, §5

DLD1 = assay: as above; conditions: DLD1 (colon cancer), mean ± standard deviation of triplicate measurements
Method: as §1, §2, §3, §4, §5

## N.N.[Cl][Pt][Cl] [Cisplatin, cis-diamine-dichloroplatinum(II)]
MRC-5
  IC50: 14 ± 1 µM
OVCAR5
  IC50: 5.2 ± 0.8 µM
OVCAR3
  IC50: 2.2 ± 0.1 µM
A2780cis
  IC50: 43 ± 3 µM
Kuramochi
  IC50: 1.7 ± 0.3 µM
DLD1
  IC50: 4.2 ± 0.5 µM
